Source: patent US7307102B2, “Method of preventing or treating estrogen-dependent diseases and disorders” (Duke University, priority 1997, dated 2007)

What was measured:
[1] = Bone mineral density in ovariectomized rats (DEXA, pQCT); assay type: in vivo, rat; settings: oral, 28 days
Description: FIGS. 3A and 3B. […] FIG. 3A. […] FIG. 3B.
(§1) Animal preparation. […] At sacrifice, animals were euthanized with C02, body weights were recorded and the uteri were removed and weighed. Uterus, vagina and mammary tissue were fixed in 10% neutral buffered formalin. Samples for histologic processing were taken from the mid-point of each uterine horn. Tissue samples were embedded in paraffin, stained with haematoxylin and eosin and evaluated microscopically. Lumbar vertebrae and both left and right tibiae were excised. Total blood cholesterol was measured (Roche Biomedical Laboratories).

ER-TAF1 = assay: C3 promoter-luciferase cotransfection assay in HepG2 cells, ER-TAF1 (AF-2 disrupted); assay type: cell-based, human
Excerpt: FIGS. 1A and 1B. […] The human C3 promoter (−1807 to +58) fused to the firefly luciferase reporter gene was transfected along with an expression plasmid containing (FIG. 1A) the wild-type human estrogen receptor (ERwt), or (FIG. 1B) a mutated ER in which the AF-2 function had been disrupted (ER-TAFl) into HepG2 cells and tested for transcriptional activation in the presence of increasing concentrations of ER-modulator as indicated. Transfections were normalized for efficiency and cell number by cotransfecting an expression plasmid containing β-galactosidase. The normalized response was obtained by dividing light units by the activity of β-galactosidase as measured in an enzymatic assay. Triplicate transfections were performed. The data shown are representative of multiple experiments performed under similar conditions.
FIGS. 2A-2C. […] FIG. 2A. […] FIG. 2B. […] FIG. 2C. […] Transfections were normalized for efficiency and cell number by cotransfecting an expression plasmid containing β-galactosidase. The normalized response was obtained by dividing light units by the activity of β-galactosidase as measured in an enzymatic assay. Representative assays are shown in which triplicate transfections were performed. Error bars represent the standard error of the mean (SEM).
HepG2 cells were maintained in Modified Eagles Medium (MEM) (Life Technologies, Grand Island, N.Y.) plus 10% Fetal Calf Serum (FCS) (Life Technologies). Cells were plated in 24 well plates (coated with gelatin) 24 hours prior to transfection. DNA was introduced into the cells using Lipofectin (Life Technologies). Briefly, triplicate transfections were performed using 3 μg of total DNA. For standard transfections, 500 ng of pCMV-β-Gal (normalization vector), 1500 ng reporter (variable) and 1000 ng receptor (pRST7-hER (Dana et al, Mol. Endocrinol. 8:1193-1207 (1994)) were used for each triplicate. Incubation of the cells with Lipofectin proceeded for 3 hrs, at which time media was removed, cells were washed with PBS and then induced with the appropriate hormone diluted in phenol red-free media containing 10% charcoal stripped CS (Cyclone Inc.). Incubation with hormone continued for 48 hrs, after which cells were lysed and assayed for luciferase and β-galactosidase activity as previously described (Norris et al, JBC 270:22777-22782 (1995)).
A series of in vitro screens have been developed that permit the classification of ER-modulators into four mechanistically distinct groups (Tzukerman et al, Mol. Endocrinol. 8:21-30 (1994)). […] Using these assays, it has been possible to derive “fingerprints” of known ER-modulators (McDonnell et al, Mol. Endocrinol. 9:659-669 (1995)).
Subsequently, the transfected cells were assayed for luceriferase and β-galactosidase activity. Each data point in this experiment represents the average of triplicate determinations of the transcriptional activity under given experimental conditions.

[2] = Uterine wet weight, body weight and uterine histology in ovariectomized rats, 28 day treatment; assay type: in vivo, rat
Description: FIGS. 8A-8D. […] Photographs were taken at 150× magnification and subsequently enlarged to a final magnification of 600×.
as §1
In addition to measurements of uterine wet weight, a histological examination of the uteri harvested from the same animals was performed (FIGS. 7A-7F (low magnification) and FIGS. 8A-8D (high magnification)).

MCF-7/LCC2 = assay: LCC2 study, MCF-7/LCC2 tumors in nude mice; assay type: in vivo, mouse; settings: after 8 weeks, 1.0 mg every three days, FIG. 11
Description: This experiment was conducted to determine the ability of GW5638 to retard the growth of this cell line in nude mice relative to control or tamoxifen treated tumors.
40 OVX mice were prepared to accept cells and grouped as follows:
Control animals received nothing and groups 3 and 4 received 0.1 ml injections in corn oil every three days. Tumors were measured Q3 days with calipers, and the area calculated as follows: Area=½×w/2×π.

[3] = Uterotrophic assay in immature rats
Description: FIG. 5. […] The data shown represent the mean value (±SEM).
Twenty-one day old female Sprague-Dawley rats (30-35 gms) were obtained from Harlan or Taconic Laboratories. Animals were sorted randomly into treatment groups of five, and average weights were recorded for each treatment group. Weights were recorded on each treatment day. […] On day of dosing, drug was diluted in 0.5% methyl cellulose, viscosity of 2% at 25° C.:400 centipoises (Sigma, St. Louis, Mo.)). Oral dosing by gavage was based on a total volume of 10 ml/kg body weight. […] Subcutaneous dosing was based on a total of 2 ml/kg body weight. […] On day 4, animals were sacrificed by C02 asphyxiation, body weights were obtained and uteri were removed, blotted and weighed. Data were expressed as uterine weight/body weight.
In this assay, uterine wet weight was used as a measure of ER-agonist activity in this tissue (FIG. 5).

- uterotrophic activity at 10 μm/kg/d ([3]; rat, in vivo, po): inactive
SMILES: CC/C(=C(\c1ccccc1)c1ccc(/C=C/C(=O)O)cc1)c1ccccc1 [GW5638]
- bone mineral density, lumbar spine ([1]; 90-day old OVX rats, FIG. 3A): dose-dependent bone protective activity
- tibial BMD ([1]; OVX rats, FIG. 3B): effective at maintaining total bone mass
- dose at which bone protection is as effective as estradiol ([1]; lumbar spine BMD, OVX rats, 3 μmol/kg(1 mg/kg)): 3 µmol/kg
- inhibition of the partial agonist activity of raloxifene on ER-TAF1 (ER-TAF1; ER-TAF1): inhibited
- inhibition of estradiol- and tamoxifen-induced ER-TAF1 transcriptional activity (ER-TAF1; ER-TAF1, FIG. 2B): capable of inhibiting
- agonist activity on ER-TAF1 (ER-TAF1; ER-TAF1, compound alone, FIG. 1B): functionally inactive
- uterotrophic activity (uterine wet weight) ([2]; 90-day old OVX rats, 28 days, doses up to three times that required for bone protection, FIG. 6): minimal uterotrophic activity
- total body weight versus sham operated animals ([2]; OVX rats, 28 days): no significant differences
- uterine epithelial cells, histology ([2]; OVX rats, 28 days): dose-related hypertrophy
- uterine stroma, histology ([2]; OVX rats, 28 days): marginal increase in intercellular connective tissue and ground substance
- stromal response and eosinophilic infiltration at the highest doses ([2]; OVX rats, highest doses): less than observed in estradiol treated rats
- epithelial hypertrophy at the highest doses ([2]; OVX rats, highest doses (3-fold higher than required for bone protection)): comparable to that of estradiol treated uteri
- tumor growth (MCF-7/LCC2): equally inhibit growth of this tumor
- inhibition of the agonist activity of estradiol in the uterus ([3]; 21 day old immature rats, in the presence of estradiol): could completely inhibit the agonist activity of estradiol
